# Assay results from patent US20130004979A1, “GLYCOSYLTRANSFERASE REVERSIBILITY FOR SUGAR NUCLEOTIDE SYNTHESIS AND MICROSCALE SCANNING” (WISCONSIN ALUMNI RESEARCH FOUNDATION, priority 2010, published 2013).
# Legend:
# OleD variant TDP-16 [1] = biological target: T1, OleD variant TDP-16 (Streptomyces antibioticus, UniProt Q53685, A242L/P67T/Q268V/S132F); experiment: NDP screening with 2-chloro-4-nitrophenyl glucoside (9); assay type: biochemical; details: donor 9, TDP-16, NDP as acceptor
# Method: Reactions were allowed to proceed for 5 hours, quenched with an equal volume of 40 mM phosphoric acid (adjusted to pH 6.5 with triethylamine) and heated for 30 seconds on a heat block. Following, samples were centrifuged at 10,000 g for 30 min at 0° C. and the supernatant removed for analysis. The clarified reaction mixtures were analyzed by analytical reverse-phase HPLC. HPLC was conducted with a Supelcosil LC18-T (3 μm, 150×4.6 mm) column (from Sigma-Aldrich St. Louis, Mo., USA) with a gradient of 0% B to 100% B over 20 min (A=40 mM phosphoric acid [adjusted to pH 6.5 with triethylamine]; B=10% MeOH in 40 mM phosphoric acid [adjusted to pH 6.5 with triethylamine]; flow rate=0.5 mL min-1) and detection monitored at 254 nm.
# [2] = biological target: OleD variant P67T/S312F/A242L/Q268V (Streptomyces antibioticus, UniProt Q53685, A242L/P67T/Q268V/S132F); experiment: Determination of equilibrium constants of the glucoside donor/UDP reaction; assay type: biochemical; details: with UDP, Tris-HCl 50 mM pH 8.5, 298K, relative to UDP-Glc (33a); calculated from Keq
# Method: Equilibrium constants (Keq, pH8.5) were also determined for 1, 2, 4, 7, and 9 and utilized to calculate the corresponding Gibbs free energy according to equation (1).
# ΔG°pH8.5=−RT ln(Keq,pH8.5)
# Reactions contained 21 μM (200 μg) OleD variant P67T/S312F/A242L/Q268V, 1 mM UDP, and 1 mM β-D-glucopyranoside donor (1, 2, 4, 7, or 9) in Tris-HCl buffer (50 mM, pH 8.5) in a final total volume of 200 μl. Multiple time course evaluations were conducted to determine the time at which each reaction reached equilibrium (<2 min for 7, 9; <90 min for 1, 4; 200 min for 2). Following, each analysis was conducted in triplicate to the minimum observed time point for equilibrium and samples were processed and evaluated as described below to determine concentrations of UDP to 33a (UDP-α-D-glucose). […] Glucoside and aglycon concentrations were inferred from the determined concentrations of UDP and 33a.
# OleD variant = OleD variant (Streptomyces antibioticus, UniProt Q53685, A242L/P67T/Q268V/S132F); experiment: β-D-glucoside screening: reverse reaction forming UDP-/TDP-glucose; assay type: biochemical; details: in combination with OleD variant TDP-16
# Text: The availability of a GT capable of utilizing a wide array of both simple aromatic acceptors and sugar nucleotides set the stage for this systematic study. With the aid of a crystal structure (10), previous directed evolution and engineering of an inverting macrolide-inactivating GT from S. antibioticus (OleD) identified several highly permissive variants for both sugar nucleotides (14 known sugar substrates) and acceptors (>70 structurally diverse known substrates) in the context of the forward reaction (11-16). Utilizing the aglycons recognized in forward reactions as a template, a set of 32 putative ü-D-glucopyranosides donors were synthesized and tested against a series of OleD variants in reverse reactions for production of UDP-J-D-glucose (UDP-Glc, 33a) in the presence of UDP (FIG. 14a). The syntheses of these putative donors required 1-3 steps (37% average overall yield) and, in all but one case (19), provided the desired E-anomer exclusively. Of the 32 putative donors evaluated, 9 (1-9) led to UDP-Glc (33a) formation with all variants examined (FIG. 14b).
# Reactions containing 2.1 μM (10 μg) of purified OleD variant, 1 mM of UDP or TDP, and 1 mM of β-D-glucopyranoside (1-32) in Tris-HCl (50 mM, pH 8.5) with a final volume of 100 μl were incubated at room temperature for 1 hour. Samples were frozen in a bath of dry ice and acetone and stored at −20° C. […]
# [3] = Solubility of donor under kinetic assay conditions; assay type: physicochemical; details: 50 mM Tris-HCl buffer, aqueous buffer; 50 mM Tris-HCl (pH 8.5)
# OleD variant TDP-16 [4] = biological target: T1, OleD variant TDP-16; experiment: Single enzyme coupled colorimetric screen of putative aglycon acceptors (410 nm); assay type: biochemical; details: 0.5 mM 9, 0.5 mM acceptor, 5 μM UDP, TDP-16, 410 nm over 480 min
# Method: Specifically, each 100 PI reaction in the 96-well plate contained the sugar donor 9 (0.5 mM), a putative aglycon acceptor (0.5 mM), a catalytic amount of UDP (5 3M) and TDP-16 (11 3M) and reaction progress was monitored at 410 nm over 480 min. […] Based upon this cumulative rapid analysis, […] (62-103) led to a positive response (designated as three standard deviations above the mean for control reactions), 37 of which (62-93, 96, 97, 99, 101, 103) were subsequently confirmed by HPLC and/or LC/MS to lead to products consistent with glucoside formation.
# Reactions containing 10.5 μM (50 μg) OleD variant TDP-16, 5 μM of UDP, 0.5 mM final acceptor (58 [as a positive control] and 62-111), and 0.5 mM 2-chloro-4-nitrophenyl-β-D-glucoside (9) in Tris-HCl buffer (50 mM, pH 8.5) with a final volume of 100 μl were prepared in a 96 well flat bottom Bacti plate (0.4 mL well^−1; Nagle Nunc International, Rochester, N.Y., USA). Absorbance measurements were recorded every 2 min at 410 nm for 8 hours on a FLUOstar Optima plate reader (BMG, Durham, N.C., USA) with the plate shaken within the reader for 5 seconds before collection of each time point. Reactions containing final acceptor were run at n=1, control reactions lacking final acceptor were run at n=6, and control reactions lacking both final acceptor and UDP were run at n=3. […]
# OleD variant TDP-16 [5] = biological target: T1, OleD variant TDP-16; experiment: 2-chloro-4-nitrophenyl glycoside screening for NDP-sugar formation; assay type: biochemical
# Method: Aliquots were removed at various time points, mixed with an equal volume of ddH2O, frozen in a bath of dry ice and acetone, and stored at −20° C. Following, samples were thawed at 4° C. and filtered through a MultiScreen Filter Plate (from Millipore, Billerica, Mass., USA) according to manufacturer's instructions. Samples were evaluated for formation of NDPsugar by analytical reverse-phase HPLC with a 250 mm×4.6 mm Gemini-NX 5μ C18 column (from Phenomenex, Torrance, Calif., USA) using a linear gradient of 0% to 50% CH3CN (solvent B) over 25 minutes (solvent A=50 mM PO4^−2, 5 mM tetrabutylammonium bisulfate, 2% acetonitrile [pH adjusted to 6.0 with KOH]; flow rate=1 ml min^−1; A254 nm).
# T1 sequence (Q53685 other isoform, or with tags, fused parts or gaps P55A/P67T/R82V/R83E/T84P/S132F/A242L/Q268V): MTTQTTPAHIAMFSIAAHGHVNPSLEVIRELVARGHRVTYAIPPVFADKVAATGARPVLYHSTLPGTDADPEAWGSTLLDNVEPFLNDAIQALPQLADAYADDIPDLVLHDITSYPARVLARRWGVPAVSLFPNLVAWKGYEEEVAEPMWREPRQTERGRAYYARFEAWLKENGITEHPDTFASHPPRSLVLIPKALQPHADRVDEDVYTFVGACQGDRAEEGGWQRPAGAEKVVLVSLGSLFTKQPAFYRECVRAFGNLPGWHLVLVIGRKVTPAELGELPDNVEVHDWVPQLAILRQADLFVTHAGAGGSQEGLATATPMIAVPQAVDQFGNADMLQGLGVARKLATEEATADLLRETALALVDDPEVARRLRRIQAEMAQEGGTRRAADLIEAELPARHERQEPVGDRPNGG
# OleD variant P67T/S312F/A242L/Q268V, sequence (Q53685 other isoform, or with tags, fused parts or gaps P55A/P67T/R82V/R83E/T84P/S132F/A242L/Q268V): as above
# OleD variant, sequence (Q53685 other isoform, or with tags, fused parts or gaps P55A/P67T/R82V/R83E/T84P/S132F/A242L/Q268V): as above
smiles,measurement,setting,value
Nc1ncnc2c1ncn2[C@@H]1O[C@H](COP(=O)(O)OP(=O)(O)O)[C@@H](O)[C@H]1O [ADP],NDP-sugar formation efficiency,OleD variant TDP-16 [1],much lower efficiency
"OCC1O[C@@H](Oc2ccccc2Cl)C(O)[C@@H](O)[C@@H]1O (stereo partly drawn) [Compound 4, 2-chlorophenyl-β-D-glucopyranoside]",ΔG°pH8.5 of donor to UDP-Glc transformation,[2],+2.55 kcal mol-1
"O=[N+]([O-])c1ccc(O[C@@H]2OC(CO)[C@@H](O)[C@H](O)C2O)c(Cl)c1 (stereo partly drawn) [Compound 9, 2-chloro-4-nitrophenyl-β-D-glucopyranoside]",ΔG°pH8.5 of donor to UDP-Glc transformation,[2],−2.78 kcal mol-1
same,overall yields of UDP-Glc (33a) or TDP-Glc (33b),OleD variant,best overall yields
same,solubility,[3],~25 mM
"O=c1c(-c2ccc(O)cc2)coc2cc(O)cc(O)c12 [Compound 62, genistein]",response in colorimetric screen (three standard deviations above the mean for control reactions),OleD variant TDP-16 [4],hits
"O=C(O)c1cn(C2CC2)c2cc(N3CCNCC3)c(F)cc2c1=O [Compound 92, ciprofloxacin]",response in colorimetric screen (three standard deviations above the mean for control reactions),OleD variant TDP-16 [4],hits
Nc1nc2c(ncn2[C@@H]2O[C@H](COP(=O)(O)OP(=O)(O)O)[C@@H](O)[C@H]2O)c(=O)[nH]1 [GDP],NDP-sugar formation efficiency,OleD variant TDP-16 [1],much lower efficiency
O=[N+]([O-])c1ccc(O[C@H]2OC[C@@H](O)[C@H](O)[C@H]2O)c(Cl)c1 [α-anomer of 38],turnover as donor substrate (anomer),OleD variant TDP-16 [5],no turnover
